Data on 1 substance can be found in patent US10370436B2, “Anti-pseudomonas Psl binding molecules and uses thereof” (priority 2011, dated 2019).

In assay [1] the test system is P. aeruginosa strain 9882-80 (O11). The assay is described as follows: OPK assay, strain 9882-80.lux. In kind it is cell-based, Pseudomonas aeruginosa. As to conditions: strain 9882-80.lux (O11); FIG. 2B. As to the method: This example describes the evaluation of prioritized human IgG1 antibodies to promote OPK of P. aeruginosa. […] OPK assays were performed as described in (DiGiandomenico, A., et al., Infect Immun 72, 7012-7021 (2004)), with modifications. Briefly, assays were performed in 96-well plates using 0.025 ml of each OPK component; P. aeruginosa strains; diluted baby rabbit serum; differentiated HL-60 cells; and monoclonal antibody. In some OPK assays, luminescent P. aeruginosa strains, which were constructed as described (Choi, K. H., et al., Nat Methods 2, 443-448 (2005)), were used. Luminescent OPK assays were performed as described above but with determination of relative luciferase units (RLUs) using a Perkin Elmer ENVISION Multilabel plate reader (Perkin Elmer).
The ability of the WapR-004 and Cam-003 antibodies to mediate OPK activity against another clinically relevant O-antigen serotype strain, 9882-80.lux, was evaluated.

Assay [2] has as its system P. aeruginosa 6077 (O11-cytotoxic). The assay is described as follows: P. aeruginosa corneal infection (keratitis) model. Format: in vivo, mice. To be noted: versus negative control-treated animals, 24 hours after infection. As to the method:
FIG. 8 (A-G): Anti-Psl monoclonal antibodies Cam-003 and WapR-004 are active in a P. aeruginosa keratitis model and thermal injury model. Mice were treated with a control IgG1 antibody or Cam-003 at 45 mg/kg (A, B) or 15 mg/kg (C, D) or PBS or a control IgG1 antibody or Cam-003 at 45 mg/kg or WapR-004 at 45 mg/kg or 15 mg/kg or 5 mg/kg (F, G) 24 hours prior to infection with 6077 (O11-cytotoxic—2×10^6 CFU). Immediately before infection, three 1 mm scratches were made on the left cornea of each animal followed by topical application of P. aeruginosa in a 5 μl inoculum. 24 hours after infection, the corneal pathology scores were calculated followed by removal of the eye for determination of viable CFU. Differences in pathology scores and viable CFU were determined by the Mann-Whitney U-test. (A) P=0.0001, (B) P<0.0001, (C) P=0.0003, (D) P=0.0015. (F) and (G) Cam-003 (45 mg/kg) vs. WapR-004 (45 mg/kg): P=0.018; Cam-003 (45 mg/kg) vs. WapR-004 (15 mg/kg): P=0.0025; WapR-004 (45 mg/kg) vs. WapR-004 (15 mg/kg): P=0.1331; WapR-004 (5 mg/kg) vs. Ctrl: P<0.0001. Results are representative of five independent experiments. (E) Survival analysis from Cam-003 and R347 treated CF-1 mice in a P. aeruginosa thermal injury model after 6077 infection (2×10^5 CFU) (log-rank: R347 vs. Cam-003 15 mg/kg, P=0.0094; R347 vs. Cam-003 5 mg/kg, P=0.0017). […]

For assay [3], the system named is P. aeruginosa PAO1 cells. The assay is described as follows: Flow cytometry (FACS) whole cell binding. As to conditions: PAO1ΔpslA; FIG. 3C. On the set-up: species or system Pseudomonas aeruginosa. An excerpt: For IgG expression, the VH and VL chains of selected antibodies were cloned into human IgG1 expression vectors, co-expressed in HEK293 cells, and purified by protein A affinity chromatography as described (Persic, L., et al., Gene 187, 9-18 (1997)). Human IgG1 antibodies made with the variable regions from these selected serotype independent phage were confirmed for P. aeruginosa specificity and prioritized for subsequent analysis by whole cell binding to dominant clinically relevant serotypes by FACS analysis (FIG. 1F), since this method is more stringent than ELISA. For the flow cytometry based binding assays mid-log phase P. aeruginosa strains were concentrated in PBS to an OD650 of 2.0. […] Samples were run on a LSR II flow cytometer (BD Biosciences) and analyzed using BD FacsDiva (v. 6.1.3) and FlowJo (v. 9.2; TreeStar).
CAM-003 is specific for the P. aeruginosa Psl surface exopolysaccharide and mediates potent OPK activity and protection in multiple in vivo models. […] Conjugation efficiency of PMB-mAbs variants was determined by mass spectrometry analysis of heavy chains in purified conjugates. […] Contamination with free PMB in the purified preparations was determined to be negligible. Binding of PMB-Cam-003 and PMB-A7 conjugates to P. aeruginosa PAO1 cells was evaluated by FACS. […] Samples were stained and analyzed as previously described in Example 1. […]

Consider “Cam-003: human IgG1 anti-Psl monoclonal antibody, VH SEQ ID NO: 1 and VL SEQ ID NO: 2”, for which the OPK activity entry in assay [1] is reported as “OPK activity extends to strain 9882-80”. Also, the “bacterial counts in total eye homogenates” value in assay [2] is “reduced bacterial counts”. Moreover, the corneal pathology entry in assay [2] (FIGS. 8A-D, F-G) is recorded as “significantly less pathology”. For the same substance, the FACS binding entry in assay [3] was “abolished”.
